# Source: patent publication US20100292091A1, “MARA FAMILY HELIX-TURN-HELIX DOMAINS AND THEIR METHODS OF USE” (Trustees of Tufts College, priority 1998, published 2010)
# Counter-ions that a name gives are not always drawn.
# Legend:
# E. coli BL21 = test: Antibiotic gradient plate susceptibility of E. coli transformants with plasmids bearing E. coli mar genes; format: cell-based, Escherichia coli
# Source text: PCR oligonucleotide primers were used to prepare a wild-type marA amplicon from E. coli AG100 (A. M. George, et al, J. Bacteriol., 1983, 155:531-540) chromosomal DNA, based on the annotated sequence (S. P. Cohen, et al. J. Bacteriol., 1993, 175:1484-1492). The oligonucleotide primers corresponded with nucleotide positions 1893 to 1910 and 2265 to 2282 and contained terminal EcoRI restriction enzyme sites to allow insertion of marA in frame with the hsp60 mycobacterial heat shock promoter resident on the E. coli-Mycobacterium shuttle plasmid pMV261 (W. R. Jacobs, et al. Microbiol. Immunol., 1990, 155:153-160). […] These mutant marA genes were ligated to pMV261 and pET13a for testing in M. smegmatis and E. coli, respectively. Plasmids were introduced into E. coli and M. smegmatis mc^2155 by electroporation with a Gene Pulser transfection apparatus (Bio-Rad. Richmond, Calif.) and selected on kanamycin (10 or 25 μg/ml).
# To obtain support for the notion that the resistance phenotype was a direct result of MarA activity in the cell, insertional mutants targeted to the first helix-turn-helix domain (HTH1) (M. N. Alekshun, et al. Chemother, 41:2067-2075) of the MarA protein were constructed. […] A double-stranded synthetic oligonucleotide with compatible ends was ligated to the NheI sites to produce two distinct insertional mutants interrupting each of the two putative alpha-helical regions (FIG. 1). These mutated genes were cloned into pMV261, as described above, for susceptibility testing in M. smegmatis at 37° C. They were also expressed from the isopropyl-β-D-thiogalactopyranoside (IPTG)-regulated T7 promoter resident on plasmid pET13a for testing in E. coli BL21 (Studier et al. 1990. Methods Enzymol. 185:60). Insertional inactivation of MarA at either helix A or helix B of the first HTH abolished the multidrug resistance phenotype in both E. coli and M. smegmatis the (Table 3 and 4).
# M. smegmatis mc^2155 = format: cell-based, Mycobacterium smegmatis
# [1] = transformant pEC10 (pET13::marA), same gradients
# [2] = transformant pET13a (vector), gradient (µg/ml) CML 2.0, TET 1.0, AMP 3.0, NAL 1.0
Compound,% Gowth in antibiotic gradient (E. coli BL21; [1]) [%],% Gowth in antibiotic gradient (E. coli BL21; [2]) [%],resistance compared to the microbe with vector alone (M. smegmatis mc^2155),change in susceptibility in the presence of marA (M. smegmatis mc^2155),also measured
"CC1(C)S[C@@H]2[C@H](NC(=O)[C@H](N)c3ccccc3)C(=O)N2[C@H]1C(=O)O [AMP, ampicillin]",11 ± 2.0,2 ± 1.1,,,
"O=C(N[C@H](CO)[C@H](O)c1ccc([N+](=O)[O-])cc1)C(Cl)Cl [CML, chloramphenicol]",100,20 ± 1.1,increased resistance,,fold increase of resistance in the presence of marA (M. smegmatis mc^2155): two-fold
"CC[C@@H](CO)NCCN[C@@H](CC)CO [ETM, ethambutol]",,,increased resistance,,fold increase of resistance in the presence of marA (M. smegmatis mc^2155): 1.5 fold
"NNC(=O)c1ccncc1 [INH, isoniazid]",,,increased resistance,,fold increase of resistance in the presence of marA (M. smegmatis mc^2155): 2.5 fold
"CCn1cc(C(=O)O)c(=O)c2ccc(C)nc21 [NAL, nalidixic acid]",100,17 ± 0.8,,Little if any change in susceptibility,
"CCn1cc(C(=O)O)c(=O)c2cc(F)c(N3CCNCC3)cc21 [Nor, norfloxacin]",,,,some increased susceptibility,
"CO[C@H]1/C=C/O[C@@]2(C)Oc3c(C)c(O)c4c(O)c(c(/C=N/N5CCN(C)CC5)c(O)c4c3C2=O)NC(=O)/C(C)=C\C=C\[C@H](C)[C@H](O)[C@@H](C)[C@@H](O)[C@@H](C)[C@H](OC(C)=O)[C@@H]1C [RIF, rifampin]",,,Increased resistance,,resistance in the presence of vector alone (M. smegmatis mc^2155): increased
"CN(C)[C@@H]1C(O)=C(C(N)=O)C(=O)[C@@]2(O)C(O)=C3C(=O)c4c(O)cccc4[C@@](C)(O)[C@H]3C[C@@H]12 [TET, tetracycline]",100,33 ± 1.0,,,% Gowth in antibiotic gradient (E. coli BL21; {}): 33 ± 1.4%
COS(=O)(=O)[O-].C[n+]1c2ccccc2nc2ccccc21 [phenazine methosulfate],,,,Little if any change in susceptibility,
C[C@@H]1CN(c2c(F)c(N)c3c(=O)c(C(=O)O)cn(C4CC4)c3c2F)C[C@H](C)N1 [sparfloxacin],,,,Little if any change in susceptibility,
"[H]/N=C(/N)N[C@H]1[C@H](O)[C@@H](O)[C@H](O[C@@H]2O[C@@H](C)[C@](O)(C=O)[C@H]2O[C@@H]2O[C@@H](CO)[C@H](O)[C@@H](O)[C@@H]2NC)[C@@H](N/C(N)=N\[H])[C@@H]1O [streptomycin, streptomycin sulfate]",,,,some increased susceptibility,
